This note sets out measurements from ChEMBL document CHEMBL6109153, “Development of Membrane-Targeting Osthole Derivatives Containing Pyridinium Quaternary Ammonium Moieties with Potent Anti-Methicillin-Resistant Staphylococcus aureus Properties” (J Med Chem, 2025).

The structures appear in SMILES notation. The source made the active and inactive calls. The calls are words filed in the database; no cut-off is given here.

In data set [1] the test system is Staphylococcus aureus. The data set can be described thus: Antibacterial activity against methicillin-resistant Staphylococcus aureus M11 infected in BALB/c mouse model of Sepsis assessed as reduction in bacterial load in kidney at 20 mg/kg, ip measured after 48 hrs. The data set is classed as functional.
Data set [2] concerns Staphylococcus aureus. Nature of the data set: Induction of bacterial eradication in methicillin-resistant Staphylococcus aureus M11 at 8 times MIC incubated for 8 hrs by time-kill assay. In kind it is functional, organism-based.
Data set [3] has as its system Staphylococcus aureus. Nature of the data set: Antibacterial activity against methicillin-resistant Staphylococcus aureus M11 infected in BALB/c mouse model of Sepsis assessed as reduction in bacterial load in spleen at 20 mg/kg, ip measured after 48 hrs. The data set is classed as functional.
Data set [4] deals with Staphylococcus aureus. The data set can be described thus: Antibacterial activity against methicillin-resistant Staphylococcus aureus M11 infected in BALB/c mouse model of Sepsis assessed as reduction in bacterial load in liver at 20 mg/kg, ip measured after 48 hrs. The data set is classed as functional.
Data set [5] is described as follows: Toxicity in BALB/c mouse model of Sepsis infected with methicillin-resistant Staphylococcus aureus M11 assessed as survival rate at 10 mg/kg, ip measured after 7 days. The data set is classed as organism-based. Conditions: in vivo, 168 h, time 7 day.
In data set [6] the test system is Staphylococcus aureus. The data set can be described thus: Antibacterial activity against methicillin-resistant Staphylococcus aureus M11 infected in BALB/c mouse model of Sepsis assessed as reduction in redness in inner epidermal abscesses at 4 mg/kg measured after 24 hrs. In kind it is functional, organism-based.
In data set [7] the test system is Staphylococcus aureus. The data set can be described thus: Antibacterial activity against methicillin-resistant Staphylococcus aureus M11 infected in BALB/c mouse model of Sepsis assessed as reduction in swelling in inner epidermal abscesses at 4 mg/kg measured after 24 hrs. In kind it is functional, organism-based.
Data set [8] relates to Staphylococcus aureus. Nature of the data set: Antibacterial activity against methicillin-resistant Staphylococcus aureus M11 infected in BALB/c mouse model of Sepsis assessed as reduction in hepatic sinusoidal dilation at 10 mg/kg, ip measured after 48 hrs. The data set is classed as functional, organism-based.
The nature of data set [9]: Toxicity in BALB/c mouse model of Sepsis infected with methicillin-resistant Staphylococcus aureus M11 assessed as survival rate at 5 mg/kg, ip measured after 7 days. In kind it is organism-based. The following applies: in vivo, 168 h, time 7 day.
Data set [10] deals with Staphylococcus aureus. The data set can be described thus: Antibacterial activity against methicillin-resistant Staphylococcus aureus M11 infected in BALB/c mouse model of Sepsis assessed as reduction in bacterial count in skin tissues at 4 mg/kg measured after 24 hrs relative to control. The data set is classed as functional. Set-up: scale not given: the % may be the effect or the level left.

Data set [11] relates to Staphylococcus aureus. The data set can be described thus: Antibacterial activity against methicillin-resistant Staphylococcus aureus M11 infected in BALB/c mouse model of Sepsis assessed as reduction in hepatic congestion at 10 mg/kg, ip measured after 48 hrs. In kind it is functional, organism-based.
Data set [12] deals with Staphylococcus aureus. The data set can be described thus: Antibacterial activity against methicillin-resistant Staphylococcus aureus M11 infected in BALB/c mouse model of Sepsis assessed as reduction in bacterial load in skin tissues at 8 mg/kg measured after 24 hrs. The data set is classed as functional.
For data set [13], the system named is Staphylococcus aureus. Nature of the data set: Antibacterial activity against methicillin-resistant Staphylococcus aureus M11 infected in BALB/c mouse model of Sepsis assessed as reduction in bacterial load in skin tissues at 4 mg/kg measured after 24 hrs. In kind it is functional.
Data set [14] has as its system Staphylococcus aureus. The data set can be described thus: Antibacterial activity against methicillin-resistant Staphylococcus aureus M11 infected in BALB/c mouse model of Sepsis assessed as reduction in abscess size on back at 4 mg/kg measured after 24 hrs. In kind it is functional, organism-based.
For data set [15], the system named is Staphylococcus aureus. The data set can be described thus: Antibacterial activity against methicillin-resistant Staphylococcus aureus M11 infected in BALB/c mouse model of Sepsis assessed as reduction in bacterial count in skin tissues at 8 mg/kg measured after 24 hrs relative to control. In kind it is functional. Set-up: scale not given: the % may be the effect or the level left.

Data set [16] concerns Staphylococcus aureus. Nature of the data set: Antibacterial activity against methicillin-resistant Staphylococcus aureus M11 infected in BALB/c mouse model of Sepsis assessed as vacuolar degeneration in liver cells at 10 mg/kg, ip measured after 48 hrs. In kind it is functional, organism-based.
The subject of data set [17] is Staphylococcus aureus. The data set can be described thus: Antibacterial activity against methicillin-resistant Staphylococcus aureus M11 infected in BALB/c mouse model of Sepsis assessed as reduction in inflammatory cell infiltration in skin tissues at 4 to 8 mg/kg measured after 24 hrs by H and E staining based analysis. The data set is classed as functional, organism-based. The following applies: dose 4-8 mg/kg.

A short description of data set [18]: Toxicity in BALB/c mouse model of Sepsis infected with methicillin-resistant Staphylococcus aureus M11 assessed as survival rate at 15 mg/kg, ip measured after 7 days. The data set is classed as organism-based. The following applies: in vivo, 168 h, time 7 day.

For `CN[C@H](CC(C)C)C(=O)N[C@H]1C(=O)N[C@@H](CC(N)=O)C(=O)N[C@H]2C(=O)N[C@H]3C(=O)N[C@H](C(=O)N[C@H](C(=O)O)c4cc(O)cc(O)c4-c4cc3ccc4O)[C@H](O)c3ccc(c(Cl)c3)Oc3cc2cc(c3O[C@@H]2O[C@H](CO)[C@@H](O)[C@H](O)[C@H]2O[C@H]2C[C@](C)(N)[C@H](O)[C@H](C)O2)Oc2ccc(cc2Cl)[C@H]1O` [VANCOMYCIN], the Activity in [1] was 3.92 log10CFU/ml; in data set [2], “Not active; Compound Inhibited Bacterial Growth But Still Showed Surviving Bacteria Within The Detection Range After 8 H, Indicating Incomplete Bacterial Eradication”; in [3], 3.88 log10CFU/ml; in [4], 3.54 log10CFU/ml; in data set [10], 97.24%; in [12] it was 3.96 log10CFU/g. For the same molecule, the Activity in data set [13] was 1.578 log10CFU/g; in data set [15] it was 99.989%. Moreover, the Survival in [5] amounted to 77.8%; in data set [9], 33.3%; in data set [18], 100%. Also, the result in [6], in [7], in data set [14], in data set [16] and in data set [17] was Active. Besides, the result in data set [8] and in [11] was inactive.
